Source: patent US6753323B2, “Topical administration of amifostine and related compounds” (MedImmune Oncology, Inc., priority 1998, dated 2004)

Tests used:
[1] = system: five compendial organisms; experiment: Microbial growth inhibition, room temperature storage, summary over all test organisms; assay type: cell-based
Description: (§1) Amifostine was studied for its ability to inhibit microbial growth. Clear 10 cc vials, stoppers and seals were sterilized for use in the study. Two separate procedures were performed: a refrigerated storage study (2° to 8° C.) and a room temperature storage study (20° to 25° C.). For each test portion, positive controls were prepared for each organism by placing 9.5 mL sterile 0.9% sodium chloride into separate sterile vials and inoculating each with 10^3 to 10^4 of one of the test organisms. In addition, amifostine test specimens were prepared for each test portion by reconstituting six Ethyol® vials with 0.9% sodium chloride, the contents of each of these vials were then transferred to clear sterile vials to allow for easier visual examination. One vial was designated as a negative control, and each of the remaining five vials was inoculated with 10^3 to 10^4 of one of the test organisms. All vials were protected from light throughout the test to simulate the amber Ethyol® vial.
Positive controls, product test specimens, and a negative control were prepared. At this time, population counts were performed on each positive control. Population counts were also performed on positive controls and product test specimens at 24 and 48 hours. These samples were diluted with sterile water and plated in duplicate with a target of 30 to 300 colonies per plate. […]

rectal wall of rats = conditions: intrarectal injection of 2% amifostine gel; cited from earlier work
[2] = system: intestinal mucosa in patients; conditions: enema in Proctofoam, 100 to 450 mg, 45 minutes prior to pelvic radiation; cited from earlier work
small intestine of rats = conditions: 150 mg/mL in pH 9 Tris buffer, intralumenal; cited from earlier work
Staphylococcus aureus [3] = experiment: Microbial growth inhibition, room temperature storage (20°-25° C.); assay type: cell-based; conditions: S. aureus, room temperature 20°-25° C.; for % Change: vs theoretical 0 hr count
Description: as §1
(§2) Positive controls, product test specimens, and a negative control were prepared. At this time, population counts were performed on each positive control. Population counts were also performed on positive controls and product test specimens at 24 and 48 hours. These samples were diluted with sterile water and plated in duplicate with a target of 30 to 300 colonies per plate. Candida albicans, Escherichia coli, Pseudomonas aeruginosa, and Staphylococcus aureus were overpoured with TSA agar and incubated at 30-35° C. for 48 hours. Aspergillus niger was overpoured with Sabouraud agar and incubated at 20-25° C. for 48 hours.

Candida albicans [4] = experiment: as above; assay type: cell-based; conditions: room temperature 20°-25° C.; for % Change: vs theoretical 0 hr count
Description: as §1, §2

Pseudomonas aeruginosa [5] = experiment: as above; assay type: cell-based; conditions: P. aeruginosa, room temperature 20°-25° C.; for % Change: vs theoretical 0 hr count
Description: as §1, §2

Aspergillus niger [6] = experiment: as above; assay type: cell-based; conditions: A. niger, room temperature 20°-25° C.; for % Change: vs theoretical 0 hr count
Description: as §1, §2

Escherichia coli [7] = experiment: as above; assay type: cell-based; conditions: E. coli, room temperature 20°-25° C.; for % Change: vs theoretical 0 hr count
Description: as §1, §2

oral mucosa of mice = conditions: topical in carbowax to oral mucosa; cited from earlier work
Staphylococcus aureus [8] = experiment: Microbial growth inhibition, refrigerated storage (2°-8° C.); assay type: cell-based; conditions: S. aureus, refrigerated 2°-8° C.; for % Change: vs theoretical 0 hr count
Description: as §1
as §2, with “at 24, 48” for “at 24”, “and 72” for “and 48”

Candida albicans [9] = experiment: as above; assay type: cell-based; conditions: refrigerated 2°-8° C.; for % Change: vs theoretical 0 hr count
Description: as §1
as §2, with “at 24, 48” for “at 24”, “and 72” for “and 48”

Pseudomonas aeruginosa [10] = experiment: as above; assay type: cell-based; conditions: P. aeruginosa, refrigerated 2°-8° C.; for % Change: vs theoretical 0 hr count
Description: as §1
as §2, with “at 24, 48” for “at 24”, “and 72” for “and 48”

Aspergillus niger [11] = experiment: as above; assay type: cell-based; conditions: A. niger, refrigerated 2°-8° C.; for % Change: vs theoretical 0 hr count
Description: as §1
as §2, with “at 24, 48” for “at 24”, “and 72” for “and 48”

Escherichia coli [12] = experiment: as above; assay type: cell-based; conditions: E. coli, refrigerated 2°-8° C.; for % Change: vs theoretical 0 hr count
Description: as §1
as §2, with “at 24, 48” for “at 24”, “and 72” for “and 48”

mouse skin = conditions: cited from earlier work

NCCCNCCSP(=O)(O)O [amifostine, S-2-(3-aminopropylamino)ethyl dihydrogen phosphorothioate]
concentration of viable microorganisms at 24 hours [1]: reduced in four of the five compendial organisms
tissue level of metabolite WR-1065 after topical application (rectal wall of rats): accumulation of the amifostine metabolite WR-1065 in the rectal wall
rectal mucosal damage, test group vs control group [2]: no significant differences
radioprotection against intestinal mucositis (small intestine of rats): effective radioprotector
CFU/mL in Amifostine (Staphylococcus aureus [3]; 24 hr): 9.60 × 10^4 CFU/mL
% Change (Staphylococcus aureus [3]; 24 hr): −4.0%
CFU/mL in Amifostine (Staphylococcus aureus [3]; 48 hr): 3.32 × 10^2 CFU/mL
% Change (Staphylococcus aureus [3]; 48 hr): −99.7%
CFU/mL in Amifostine (Candida albicans [4]; 24 hr): 1.43 × 10^4 CFU/mL
% Change (Candida albicans [4]; 24 hr): −13.8%
CFU/mL in Amifostine (Candida albicans [4]; 48 hr): 1.00 × 10^4 CFU/mL
% Change (Candida albicans [4]; 48 hr): −39.8%
CFU/mL in Amifostine (Pseudomonas aeruginosa [5]; 24 hr): 5.22 × 10^2 CFU/mL
% Change (Pseudomonas aeruginosa [5]; 24 hr): −80.0%
CFU/mL in Amifostine (Pseudomonas aeruginosa [5]; 48 hr): 0 CFU/mL
% Change (Pseudomonas aeruginosa [5]; 48 hr): −100%
CFU/mL in Amifostine (Aspergillus niger [6]; 24 hr): 1.56 × 10^7 CFU/mL
% Change (Aspergillus niger [6]; 24 hr): +58.3%
CFU/mL in Amifostine (Aspergillus niger [6]; 48 hr): 3.52 × 10^6 CFU/mL
% Change (Aspergillus niger [6]; 48 hr): −61.3%
CFU/mL in Amifostine (Escherichia coli [7]; 24 hr): 2.28 × 10^3 CFU/mL
% Change (Escherichia coli [7]; 24 hr): −91.8%
CFU/mL in Amifostine (Escherichia coli [7]; 48 hr): 8.55 × 10^2 CFU/mL
% Change (Escherichia coli [7]; 48 hr): −96.9%
toxicity at the dosages tested (oral mucosa of mice): no toxicity observed
CFU/mL in Amifostine (Staphylococcus aureus [8]; 24 hr): 4.75 × 10^1 CFU/mL
% Change (Staphylococcus aureus [8]; 24 hr): −50.0%
CFU/mL in Amifostine (Staphylococcus aureus [8]; 48 hr): 4.75 × 10^1 CFU/mL
% Change (Staphylococcus aureus [8]; 48 hr): −50.0%
CFU/mL in Amifostine (Staphylococcus aureus [8]; 72 hr): 4.75 × 10^1 CFU/mL
% Change (Staphylococcus aureus [8]; 72 hr): −50.0%
CFU/mL in Amifostine (Candida albicans [9]; 24 hr): 3.99 × 10^3 CFU/mL
% Change (Candida albicans [9]; 24 hr): −63.0%
CFU/mL in Amifostine (Candida albicans [9]; 48 hr): 2.09 × 10^3 CFU/mL
% Change (Candida albicans [9]; 48 hr): −80.6%
CFU/mL in Amifostine (Candida albicans [9]; 72 hr): 7.13 × 10^3 CFU/mL
% Change (Candida albicans [9]; 72 hr): −34.0%
CFU/mL in Amifostine (Pseudomonas aeruginosa [10]; 24 hr): 3.04 × 10^3 CFU/mL
% Change (Pseudomonas aeruginosa [10]; 24 hr): −20.0%
CFU/mL in Amifostine (Pseudomonas aeruginosa [10]; 48 hr): 1.76 × 10^3 CFU/mL
% Change (Pseudomonas aeruginosa [10]; 48 hr): −53.7%
CFU/mL in Amifostine (Pseudomonas aeruginosa [10]; 72 hr): 1.85 × 10^3 CFU/mL
% Change (Pseudomonas aeruginosa [10]; 72 hr): −51.3%
CFU/mL in Amifostine (Aspergillus niger [11]; 24 hr): 1.78 × 10^5 CFU/mL
% Change (Aspergillus niger [11]; 24 hr): −40.7%
CFU/mL in Amifostine (Aspergillus niger [11]; 48 hr): 1.67 × 10^5 CFU/mL
% Change (Aspergillus niger [11]; 48 hr): −44.3%
CFU/mL in Amifostine (Aspergillus niger [11]; 72 hr): 1.67 × 10^5 CFU/mL
% Change (Aspergillus niger [11]; 72 hr): −44.3%
CFU/mL in Amifostine (Escherichia coli [12]; 24 hr): 2.85 × 10^2 CFU/mL
% Change (Escherichia coli [12]; 24 hr): −70.0%
CFU/mL in Amifostine (Escherichia coli [12]; 48 hr): 0 CFU/mL
% Change (Escherichia coli [12]; 48 hr): −100%
CFU/mL in Amifostine (Escherichia coli [12]; 72 hr): 0 CFU/mL
% Change (Escherichia coli [12]; 72 hr): −100%
radioprotective effect, topically applied (mouse skin; paste (aqueous sodium bicarbonate pH 7 and Unibase) on mouse skin, any dose studied): no radioprotective effect
radioprotective effect, systemically administered (mouse skin; systemic administration, mice): effective in reducing the severity of radiation damage
